Test results reported in patent US9376425B2, “Heterocyclic compounds as MDM2 inhibitors for the treatment of cancer” (AMGEN INC., priority 2011, dated 2016).

Molecular target: T1, human MDM2 (GST-hMDM2 1-188), interaction with biotinylated-p53 (1-83) (Homo sapiens, UniProt Q00987)
T1 construct: Amino acid residues 1-188 of human MDM2 were expressed; made in house; host or cells: Escherichia coli
Assay: improved HTRF assay (HTRF2 assay), inhibition of HDM2-p53 interaction
Type: binding
Details: 0.2 nM GST-hMDM2, 0.5 nM biotinylated-p53, 100 mM KF
Method: Residues 1-83 of human p53 were expressed as an amino-terminal AviTag™-TrxA-6xHis fusion protein (biotinylated p53) in E. coli. Each protein was purified from cell paste by affinity chromatography.
Specifically, 10 uL of GST-hMDM2 was incubated with 10 ul of diluted compound (various concentrations, serially diluted) in 10% DMSO for 20 minutes at room temperature. 20 uL of biotinylated-p53 was added to the GST-hMDM2+ compound mixture, and then incubated at room temperature for 60 min. 10 uL of detection buffer consisting of SA-XLent, anti-GST cryptate antibody and KF was added to GST-hMDM2, biotinylated-p53 and compound reaction and left at room temperature to reach equilibrium for >4 hrs. The final concentration of DMSO in the reaction was 2%. Time-resolved fluorescence readings were measured on a microplate multilabel reader. Percentage of inhibition was calculated relative to nutlin-3.

T1 sequence (Q00987 1-188): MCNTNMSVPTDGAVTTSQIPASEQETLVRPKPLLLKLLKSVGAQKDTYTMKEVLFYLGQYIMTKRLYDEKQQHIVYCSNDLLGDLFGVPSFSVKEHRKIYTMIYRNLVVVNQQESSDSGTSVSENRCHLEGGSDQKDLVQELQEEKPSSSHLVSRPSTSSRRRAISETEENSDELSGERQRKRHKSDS

Molecule	IC50 [nM]
CC(C)S(=O)(=O)C[C@H](C1CC1)N1C(=O)[C@@H](CC(=O)O)O[C@H](c2cccc(Cl)c2)[C@H]1c1ccc(Cl)cc1 (single isomer, unassigned) [Example 156, 2-((2R,5R,6R)-6-(3-chlorophenyl)-5-(4-chlorophenyl)-4-((S)-1-cyclopropyl-2-(isopropylsulfonyl)ethyl)-3-oxomorpholin-2-yl)acetic acid or 2-((2S,5R,6R)-6-(3-chlorophenyl)-5-(4-chlorophenyl)-4-((S)-1-cyclopropyl-2-(isopropylsulfonyl)ethyl)-3-oxomorpholin-2-yl)acetic acid]	1
O=C(O)C[C@H]1O[C@H](c2cccc(Cl)c2)[C@@H](c2ccc(Cl)cc2)N([C@H](CS(=O)(=O)c2ccncc2)C2CC2)C1=O (single isomer, unassigned) [Example 286, 2-((2R,5R,6R)-6-(3-Chlorophenyl)-5-(4-chlorophenyl)-4-((S)-1-cyclopropyl-2-(pyridin-4-ylsulfonyl)ethyl)-3-oxomorpholin-2-yl)acetic acid or 2-((2S,5R,6R)-6-(3-chlorophenyl)-5-(4-chlorophenyl)-4-((S)-1-cyclopropyl-2-(pyridin-4-ylsulfonyl)ethyl)-3-oxomorpholin-2-yl)acetic acid]	2
CC[C@@H](CS(=O)(=O)CC1CC1)N1C(=O)[C@@H](CC(=O)O)O[C@H](c2cccc(Cl)c2)[C@H]1c1ccc(Cl)cc1 (single isomer, unassigned) [Example 190, 2-((2R,5R,6R)-6-(3-chlorophenyl)-5-(4-chlorophenyl)-4-((S)-1-((cyclopropylmethyl)sulfonyl)butan-2-yl)-3-oxomorpholin-2-yl)acetic acid or 2-((2S,5R,6R)-6-(3-chlorophenyl)-5-(4-chlorophenyl)-4-((S)-1-((cyclopropylmethyl)sulfonyl)butan-2-yl)-3-oxomorpholin-2-yl)acetic acid]	3
CC(C)(C)S(=O)(=O)C[C@H](CC(F)(F)F)N1C(=O)[C@@H](CC(N)=O)O[C@H](c2cccc(Cl)c2)[C@H]1c1ccc(Cl)cc1 (single isomer, unassigned) [Example 363, 22-((2R,5R,6R)-4-((S)-1-(tert-Butylsulfonyl)-4,4,4-trifluorobutan-2-yl)-6-(3-chlorophenyl)-5-(4-chlorophenyl)-3-oxomorpholin-2-yl)acetamide or 2-((2S,5R,6R)-4-((S)-1-(tert-butylsulfonyl)-4,4,4-trifluorobutan-2-yl)-6-(3-chlorophenyl)-5-(4-chlorophenyl)-3-oxomorpholin-2-yl)acetamide]	23
O=C(O)C[C@H]1O[C@H](c2cccc(Cl)c2)[C@@H](c2ccc(Cl)cc2)N([C@H](CS(=O)(=O)N2CCOCC2)C2CC2)C1=O (single isomer, unassigned) [Example 303, 2-((2R,5R,6R)-6-(3-Chlorophenyl)-5-(4-chlorophenyl)-4-((S)-1-cyclopropyl-2-(morpholinosulfonyl)ethyl)-3-oxomorpholin-2-yl)acetic acid or 2-((2S,5R,6R)-6-(3-chlorophenyl)-5-(4-chlorophenyl)-4-((S)-1-cyclopropyl-2-(morpholinosulfonyl)ethyl)-3-oxomorpholin-2-yl)acetic acid]	1
CC(C)(C)S(=O)(=O)C[C@H](CC(F)(F)F)N1C(=O)[C@@H](CC(N)=O)O[C@H](c2cccc(Cl)c2)[C@H]1c1ccc(Cl)cc1 (single isomer, unassigned) [Example 362, 2-((2R,5R,6R)-4-((S)-1-(tert-Butylsulfonyl)-4,4,4-trifluorobutan-2-yl)-6-(3-chlorophenyl)-5-(4-chlorophenyl)-3-oxomorpholin-2-yl)acetamide or 2-((2S,5R,6R)-4-((S)-1-(tert-butylsulfonyl)-4,4,4-trifluorobutan-2-yl)-6-(3-chlorophenyl)-5-(4-chlorophenyl)-3-oxomorpholin-2-yl)acetamide]	20
CC[C@@H](CS(=O)(=O)C(C)(C)C)N1C(=O)[C@@H](CC(=O)O)O[C@H](c2cccc(Cl)c2)[C@H]1c1ccc(Cl)cc1F (single isomer, unassigned) [Example 316, 2-((2R,5R,6R)-4-((S)-1-(tert-Butylsulfonyl)butan-2-yl)-5-(4-chloro-2-fluorophenyl)-6-(3-chlorophenyl)-3-oxomorpholin-2-yl)acetic acid or 2-((2S,5R,6R)-4-((S)-1-(tert-butylsulfonyl)butan-2-yl)-5-(4-chloro-2-fluorophenyl)-6-(3-chlorophenyl)-3-oxomorpholin-2-yl)acetic acid]	2
Cc1n[nH]c(C[C@H]2O[C@H](c3cccc(Cl)c3)[C@@H](c3ccc(Cl)cc3)N([C@H](CN(c3ccccc3F)S(=O)(=O)C3CC3)C3CC3)C2=O)n1 (single isomer, unassigned) [Example 393, N-((S)-2-((2R,3R,6R)-2-(3-Chlorophenyl)-3-(4-chlorophenyl)-6-((3-methyl-1H-1,2,4-triazol-5-yl)methyl)-5-oxomorpholino)-2-cyclopropylethyl)-N-(2-fluorophenyl)cyclopropanesulfonamide or N-((S)-2-((2S,3R,6R)-2-(3-chlorophenyl)-3-(4-chlorophenyl)-6-((3-methyl-1H-1,2,4-triazol-5-yl)methyl)-5-oxomorpholino)-2-cyclopropylethyl)-N-(2-fluorophenyl)cyclopropanesulfonamide]	< 1
C[C@@H](CS(=O)(=O)C(C)(C)C)N1C(=O)[C@H](CC(=O)NCCO)O[C@H](c2cccc(Cl)c2)[C@H]1c1ccc(Cl)cc1 (single isomer, unassigned) [Example 233, 2-((2S,5R,6R)-4-((S)-1-(tert-butylsulfonyl)propan-2-yl)-6-(3-chlorophenyl)-5-(4-chlorophenyl)-3-oxomorpholin-2-yl)-N-(2-hydroxyethyl)acetamide or 2-((2R,5R,6R)-4-((S)-1-(tert-butylsulfonyl)propan-2-yl)-6-(3-chlorophenyl)-5-(4-chlorophenyl)-3-oxomorpholin-2-yl)-N-(2-hydroxyethyl)acetamide]	6
CNC(=O)C[C@H]1O[C@H](c2cccc(Cl)c2)[C@@H](c2ccc(Cl)cc2)N([C@H](CN(c2ccccc2F)S(=O)(=O)C2CC2)C2CC2)C1=O (single isomer, unassigned) [Example 365, 2-((2R,5R,6R)-6-(3-Chlorophenyl)-5-(4-chlorophenyl)-4-((S)-1-cyclopropyl-2-(N-(2-fluorophenyl)cyclopropanesulfonamido)ethyl)-3-oxomorpholin-2-yl)-N-methylacetamide or 2-((2S,5R,6R)-6-(3-chlorophenyl)-5-(4-chlorophenyl)-4-((S)-1-cyclopropyl-2-(N-(2-fluorophenyl)cyclopropanesulfonamido)ethyl)-3-oxomorpholin-2-yl)-N-methylacetamide]	2
CC1(C)CCCN1S(=O)(=O)C[C@H](C1CC1)N1C(=O)[C@@H](CC(=O)O)O[C@H](c2cccc(Cl)c2)[C@H]1c1ccc(Cl)cc1 (single isomer, unassigned) [Example 307, 2-((2R,5R,6R)-6-(3-Chlorophenyl)-5-(4-chlorophenyl)-4-((S)-1-cyclopropyl-2-((2,2-dimethylpyrrolidin-1-yl)sulfonyl)ethyl)-3-oxomorpholin-2-yl)acetic acid or 2-((2R,5R,6R)-6-(3-chlorophenyl)-5-(4-chlorophenyl)-4-((S)-1-cyclopropyl-2-((2,2-dimethylpyrrolidin-1-yl)sulfonyl)ethyl)-3-oxomorpholin-2-yl)acetic acid]	< 1
2-((2R,5R,6R)-6-(3-Chlorophenyl)-5-(4-chlorophenyl)-4-((3S,5S)-5-hydroxyhexan-3-yl)-3-oxomorpholin-2-yl)acetic acid or 2-((2R,5R,6R)-6-(3-Chlorophenyl)-5-(4-chlorophenyl)-4-((3S,5R)-5-hydroxyhexan-3-yl)-3-oxomorpholin-2-yl)acetic acid [Example 126]	61
O=C(O)C[C@H]1O[C@H](c2cccc(Cl)c2)[C@@H](c2ccc(Cl)cc2)N([C@H](CS(=O)(=O)Nc2ccccc2F)C2CC2)C1=O (single isomer, unassigned) [Example 294, 2-((2R,5R,6R)-6-(3-Chlorophenyl)-5-(4-chlorophenyl)-4-((S)-1-cyclopropyl-2-(N-(2-fluorophenyl)sulfamoyl)ethyl)-3-oxomorpholin-2-yl)acetic acid or 2-((2S,5R,6R)-6-(3-chlorophenyl)-5-(4-chlorophenyl)-4-((S)-1-cyclopropyl-2-(N-(2-fluorophenyl)sulfamoyl)ethyl)-3-oxomorpholin-2-yl)acetic acid]	< 1
CC[C@@H](CS(=O)(=O)C(C)(C)C)N1C(=O)[C@@H](C[C@@H](O)CO)O[C@H](c2cccc(Cl)c2)[C@H]1c1ccc(Cl)cc1 (single isomer, unassigned) [Example 374]	19
C[C@]1(CC(=O)O)O[C@H](c2cccc(Cl)c2)[C@@H](c2ccc(Cl)cc2)N([C@H](CN(c2ccccc2F)S(=O)(=O)C2CC2)C2CC2)C1=O (single isomer, unassigned) [Example 331, 2-((2R,5R,6R)-6-(3-Chlorophenyl)-5-(4-chlorophenyl)-4-((S)-1-cyclopropyl-2-(N-(2-fluorophenyl)cyclopropanesulfonamido)ethyl)-2-methyl-3-oxomorpholin-2-yl)acetic acid or 2-((2S,5R,6R)-6-(3-chlorophenyl)-5-(4-chlorophenyl)-4-((S)-1-cyclopropyl-2-(N-(2-fluorophenyl)cyclopropanesulfonamido)ethyl)-2-methyl-3-oxomorpholin-2-yl)acetic acid]	< 1
